Consider 2 compounds from patent US10023611B2, “Process for the preparation of bortezomib mannitol ester” (Cipla Limited, priority 2013, dated 2018).

The nature of series [1]: Water solubility. The series is classed as physicochemical. How it is done:
Bortezomib (a boronic acid compound), in its solid state as a pure API existed in the form of highly water insoluble boroxine, a cyclic boronic acid anhydride. When placed in water, the boroxine dissociated to form equilibrium between itself and the monomeric bortezomib resulting in an apparent water solubility of about 0.5-1 mg/ml which was not sufficient for formulation purposes. In order to deal with such issues, the innovator company in their patent WO2002059130 application has described a stable formulation containing mannitol ester of bortezomib. The application '9130 also relates to a process of preparing such formulation by first dissolving the bortezomib in warm (temperature around 45±2° C.) TBA (tertiary butyl alcohol), then adding water and mannitol (1% bulking agent), followed by freeze drying. […] So, the FDA approved drug Bortezomib is now available as a mannitol boronic ester which in its reconstituted form consists of the mannitol ester in equilibrium with its hydrolysis product, the monomeric boronic acid. The drug substance exists in its cyclic anhydride from as a trimeric boroxine, as described below in FIG. 1.

For series [2] the following is noted: boroxine placed in water, equilibrium with monomeric bortezomib; cited from earlier work.

As to `CC(C)C[C@H](NC(=O)[C@H](Cc1ccccc1)NC(=O)c1cnccn1)B(O)O` [Bortezomib, [(1R)-3-methyl-1-[[(2S)-1-oxo-3-phenyl-2-[(pyrazinylcarbonyl)amino]propyl]amino]butyl] boronic acid], the “water solubility (in words)” value in series [1] is listed as “poorly water soluble”. In series [2], the apparent water solubility was 500 to 1000 µg/mL.
Turning to `CC(C)C[C@H](NC(=O)[C@H](Cc1ccccc1)NC(=O)c1cnccn1)B1OC(C(O)CO)C(C(O)CO)O1` (stereo in doubt) [Compound B, bortezomib-mannitol ester], in series [1], the “water solubility (soluble in volumes of water)” value was “around 5 volumes water”.
